Experiments:
Type in all cases: in vivo
[1] = tested on: Alopecurus myosuroides (ALOMY); test: Pre-emergence biological efficacy, glasshouse, 1000 g/ha, evaluated after 13 days (100=total damage to plant; 0=no damage to plant); settings: Alopecurus myosuroides, 312 h, read-out: Percentage damage caused to weed species, pre-emergence, ALOMY; for pest or weed control at 1000 g/ha: rate 1,000 g/ha
Outline: (§1)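 Seeds were sown in standard soil in pots, then grown in a controlled glasshouse at 24/16° C. day/night, 14 hours light and 65% humidity, with watering twice daily.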

[2] = tested on: Amaranthus retroflexus (AMARE); test: as above; settings: Amaranthus retroflexus, 312 h, read-out: Percentage damage caused to weed species, pre-emergence, AMARE; for pest or weed control at 1000 g/ha: rate 1,000 g/ha
Outline: as §1

[3] = tested on: Echinochloa crus-galli (ECHCG); test: as above; settings: Echinochloa crus-galli, 312 h, read-out: Percentage damage caused to weed species, pre-emergence, ECHCG; for pest or weed control at 1000 g/ha: rate 1,000 g/ha
Outline: as §1

[4] = tested on: Ipomoea hederaceae (IPOHE); test: as above; settings: Ipomoea, 312 h, read-out: Percentage damage caused to weed species, pre-emergence, IPOHE; for pest or weed control at 1000 g/ha: rate 1,000 g/ha
Outline: as §1

Setaria faberi (SETFA) [5] = test: as above; settings: Setaria faberi, 312 h, read-out: Percentage damage caused to weed species, pre-emergence, SETFA; for pest or weed control at 1000 g/ha: rate 1,000 g/ha
Outline: as §1

Solanum nigrum (SOLNI) [6] = test: as above; settings: Solanum nigrum, 312 h, read-out: Percentage damage caused to weed species, pre-emergence, SOLNI; for pest or weed control at 1000 g/ha: rate 1,000 g/ha
Outline: as §1

[7] = tested on: Alopecurus myosuroides (ALOMY); test: Post-emergence biological efficacy, glasshouse, 500 or 1000 g/ha, evaluated after 13 days (100=total damage to plant; 0=no damage to plant); settings: Alopecurus myosuroides, 312 h, read-out: Percentage damage caused to weed species, post-emergence, ALOMY; for pest or weed control at 1000 g/ha: rate 1,000 g/ha
Outline: (§2)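 Sow seeds in standard potting soil. Treat after emergence. Keep treated plants in the glasshouse at 24° C. by day and 16° C. by night, with a 14-hour photoperiod, 65% humidity and two waterings daily.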

[8] = tested on: Amaranthus retroflexus (AMARE); test: as above; settings: Amaranthus retroflexus, 312 h, read-out: Percentage damage caused to weed species, post-emergence, AMARE; for pest or weed control at 1000 g/ha: rate 1,000 g/ha
Outline: as §2

[9] = tested on: Echinochloa crusgaffi (ECHCG); test: as above; settings: Echinochloa, 312 h, read-out: Percentage damage caused to weed species, post-emergence, ECHCG; for pest or weed control at 1000 g/ha: rate 1,000 g/ha
Outline: as §2

[10] = tested on: Ipomoea hederaceae (IPOHE); test: as above; settings: Ipomoea, 312 h, read-out: Percentage damage caused to weed species, post-emergence, IPOHE; for pest or weed control at 1000 g/ha: rate 1,000 g/ha
Outline: as §2

Setaria faberi (SETFA) [11] = test: as above; settings: Setaria faberi, 312 h, read-out: Percentage damage caused to weed species, post-emergence, SETFA; for pest or weed control at 1000 g/ha: rate 1,000 g/ha
Outline: as §2

Solanum nigrum (SOLNI) [12] = test: as above; settings: Solanum nigrum, 312 h, read-out: Percentage damage caused to weed species, post-emergence, SOLNI; for pest or weed control at 1000 g/ha: rate 1,000 g/ha
Outline: as §2

## COC(=O)c1nc(-c2ccc(Cl)c(OC)c2F)nc2[nH]c(-c3ccccc3)c(C)c12 [Compound 1-108, 2-(4-Chloro-2-fluoro-3-methoxyphenyl)-4-methoxycarbonyl-5-methyl-6-phenyl-7H-pyrrolo[2,3-d]pyrimidine]
[1]
  pest or weed control at 1000 g/ha: 0%
[2]
  pest or weed control at 1000 g/ha: 0%
[3]
  pest or weed control at 1000 g/ha: 0%
[4]
  pest or weed control at 1000 g/ha: 0%
Setaria faberi (SETFA) [5]
  pest or weed control at 1000 g/ha: 0%
Solanum nigrum (SOLNI) [6]
  pest or weed control at 1000 g/ha: 0%
[7]
  pest or weed control at 1000 g/ha: 0%
[8]
  pest or weed control at 1000 g/ha: 0%
[9]
  pest or weed control at 1000 g/ha: 0%
[10]
  pest or weed control at 1000 g/ha: 50%
Setaria faberi (SETFA) [11]
  pest or weed control at 1000 g/ha: 0%
Solanum nigrum (SOLNI) [12]
  pest or weed control at 1000 g/ha: 30%

## COC(=O)c1nc(-c2ccc(Cl)c(OC)c2F)nc2c1NC(C)C(C)N2 (stereo not drawn) [Compound 91-184, 2-(4-Chloro-2-fluoro-3-methoxyphenyl)-6,7-dimethyl-4-methoxy-carbonyl-5,6,7,8-tetrahydropteridine]
[1]
  pest or weed control at 1000 g/ha: 0%
[2]
  pest or weed control at 1000 g/ha: 0%
[3]
  pest or weed control at 1000 g/ha: 0%
[4]
  pest or weed control at 1000 g/ha: 0%
Setaria faberi (SETFA) [5]
  pest or weed control at 1000 g/ha: 0%
Solanum nigrum (SOLNI) [6]
  pest or weed control at 1000 g/ha: 0%
[7]
  pest or weed control at 1000 g/ha: 0%
[8]
  pest or weed control at 1000 g/ha: 20%
[9]
  pest or weed control at 1000 g/ha: 30%
[10]
  pest or weed control at 1000 g/ha: 70%
Setaria faberi (SETFA) [11]
  pest or weed control at 1000 g/ha: 0%
Solanum nigrum (SOLNI) [12]
  pest or weed control at 1000 g/ha: 50%

## COc1c(Cl)ccc(-c2nc(C(=O)O)c3c(C)cn(S(=O)(=O)c4ccc(C)cc4)c3n2)c1F [Compound 19-63, 4-Carboxy-2-(4-chloro-2-fluoro-3-methoxyphenyl)-5-methyl-7-(4-methylphenyl-sulphonyl)-7H-pyrrolo[2,3-d]pyrimidine]
[1]
  pest or weed control at 1000 g/ha: 0%
[2]
  pest or weed control at 1000 g/ha: 0%
[3]
  pest or weed control at 1000 g/ha: 0%
[4]
  pest or weed control at 1000 g/ha: 0%
Setaria faberi (SETFA) [5]
  pest or weed control at 1000 g/ha: 0%
Solanum nigrum (SOLNI) [6]
  pest or weed control at 1000 g/ha: 0%
[7]
  pest or weed control at 1000 g/ha: 0%
[8]
  pest or weed control at 1000 g/ha: 50%
[9]
  pest or weed control at 1000 g/ha: 0%
[10]
  pest or weed control at 1000 g/ha: 60%
Setaria faberi (SETFA) [11]
  pest or weed control at 1000 g/ha: 0%
Solanum nigrum (SOLNI) [12]
  pest or weed control at 1000 g/ha: 70%

## CCCCOCCOC(=O)c1nc(-c2ccc(Cl)c(OC)c2F)cc2[nH]cc(C)c12 [Compound 22-83]
[1]
  pest or weed control at 1000 g/ha: 20%
[2]
  pest or weed control at 1000 g/ha: 0%
[3]
  pest or weed control at 1000 g/ha: 20%
[4]
  pest or weed control at 1000 g/ha: 80%
Setaria faberi (SETFA) [5]
  pest or weed control at 1000 g/ha: 10%
Solanum nigrum (SOLNI) [6]
  pest or weed control at 1000 g/ha: 80%
[7]
  pest or weed control at 1000 g/ha: 20%
[8]
  pest or weed control at 1000 g/ha: 90%
[9]
  pest or weed control at 1000 g/ha: 20%
[10]
  pest or weed control at 1000 g/ha: 60%
Setaria faberi (SETFA) [11]
  pest or weed control at 1000 g/ha: 40%
Solanum nigrum (SOLNI) [12]
  pest or weed control at 1000 g/ha: 90%

## COC(=O)c1nc(-c2ccc(Cl)c(F)c2)nc2c1ccn2Cc1ccccc1[N+](=O)[O-] [Compound 8-18, 2-(4-Chloro-3-fluorophenyl)-4-methoxycarbonyl-7-(2-nitrophenyl-methyl)-7H-pyrrolo[2,3-d]pyrimidine]
[1]
  pest or weed control at 1000 g/ha: 0%
[2]
  pest or weed control at 1000 g/ha: 0%
[3]
  pest or weed control at 1000 g/ha: 0%
[4]
  pest or weed control at 1000 g/ha: 0%
Setaria faberi (SETFA) [5]
  pest or weed control at 1000 g/ha: 0%
Solanum nigrum (SOLNI) [6]
  pest or weed control at 1000 g/ha: 0%
[7]
  pest or weed control at 1000 g/ha: 0%
[8]
  pest or weed control at 1000 g/ha: 0%
[9]
  pest or weed control at 1000 g/ha: 0%
[10]
  pest or weed control at 1000 g/ha: 20%
Setaria faberi (SETFA) [11]
  pest or weed control at 1000 g/ha: 0%
Solanum nigrum (SOLNI) [12]
  pest or weed control at 1000 g/ha: 30%

## CCCCOCC(C)OC(=O)c1nc(-c2ccc(Cl)c(OC)c2F)nc2[nH]cc(C)c12 (stereo not drawn) [Compound 1-84, 4-[(1-n-Butoxy)-prop-2-yloxycarbonyl]-2-(4-chloro-2-fluoro-3-methoxyphenyl)-5-methyl-7H-pyrrolo[2,3-d]pyrimidne]
[1]
  pest or weed control at 1000 g/ha: 10%
[2]
  pest or weed control at 1000 g/ha: 20%
[3]
  pest or weed control at 1000 g/ha: 10%
[4]
  pest or weed control at 1000 g/ha: 70%
Setaria faberi (SETFA) [5]
  pest or weed control at 1000 g/ha: 10%
Solanum nigrum (SOLNI) [6]
  pest or weed control at 1000 g/ha: 40%
[7]
  pest or weed control at 1000 g/ha: 10%
[8]
  pest or weed control at 1000 g/ha: 60%
[9]
  pest or weed control at 1000 g/ha: 0%
[10]
  pest or weed control at 1000 g/ha: 40%
Setaria faberi (SETFA) [11]
  pest or weed control at 1000 g/ha: 10%
Solanum nigrum (SOLNI) [12]
  pest or weed control at 1000 g/ha: 70%

## CCCCCCCCOC(=O)c1nc(-c2ccc(Cl)c(OC)c2F)nc2[nH]cc(C)c12 [Compound 1-77, 2-(4-Chloro-2-fluoro-3-methoxyphenyl)-5-methyl-4-(n-octyloxycarbonyl)-7H-pyrrolo[2,3-d]pyrimidine]
[1]
  pest or weed control at 1000 g/ha: 0%
[2]
  pest or weed control at 1000 g/ha: 0%
[3]
  pest or weed control at 1000 g/ha: 0%
[4]
  pest or weed control at 1000 g/ha: 0%
Setaria faberi (SETFA) [5]
  pest or weed control at 1000 g/ha: 10%
Solanum nigrum (SOLNI) [6]
  pest or weed control at 1000 g/ha: 10%
[7]
  pest or weed control at 1000 g/ha: 0%
[8]
  pest or weed control at 1000 g/ha: 10%
[9]
  pest or weed control at 1000 g/ha: 0%
[10]
  pest or weed control at 1000 g/ha: 40%
Setaria faberi (SETFA) [11]
  pest or weed control at 1000 g/ha: 10%
Solanum nigrum (SOLNI) [12]
  pest or weed control at 1000 g/ha: 70%

## COC(=O)c1nc(-c2ccc(Cl)c(F)c2)nc2[nH]c(C)c(C)c12 [Compound 1-24, 2-(4-chloro-3-fluorophenyl)-5,6-dimethyl-4-methoxycarbonyl-7H-pyrrolo[2,3-d]pyrimidine]
[1]
  pest or weed control at 1000 g/ha: 0%
[2]
  pest or weed control at 1000 g/ha: 0%
[3]
  pest or weed control at 1000 g/ha: 0%
[4]
  pest or weed control at 1000 g/ha: 0%
Setaria faberi (SETFA) [5]
  pest or weed control at 1000 g/ha: 0%
Solanum nigrum (SOLNI) [6]
  pest or weed control at 1000 g/ha: 0%
[7]
  pest or weed control at 1000 g/ha: 0%
[8]
  pest or weed control at 1000 g/ha: 10%
[9]
  pest or weed control at 1000 g/ha: 0%
[10]
  pest or weed control at 1000 g/ha: 20%
Setaria faberi (SETFA) [11]
  pest or weed control at 1000 g/ha: 0%
Solanum nigrum (SOLNI) [12]
  pest or weed control at 1000 g/ha: 50%

## Cc1cc2c(C(=O)O)nc(-c3ccc(Cl)c(F)c3)nc2n1Cc1ccccc1 [Compound 6-21, 4-Carboxy-2-(4-chloro-3-fluorophenyl)-6-methyl-7-phenylmethyl-7H-pyrrolo[2,3-d]pyrimidine]
[1]; rate 250 g/ha
  pest or weed control at 250 g/ha: 0%
[2]; rate 250 g/ha
  pest or weed control at 250 g/ha: 0%
[3]; rate 250 g/ha
  pest or weed control at 250 g/ha: 0%
[4]; rate 250 g/ha
  pest or weed control at 250 g/ha: 0%
Setaria faberi (SETFA) [5]; rate 250 g/ha
  pest or weed control at 250 g/ha: 0%
Solanum nigrum (SOLNI) [6]; rate 250 g/ha
  pest or weed control at 250 g/ha: 0%
[7]; rate 250 g/ha
  pest or weed control at 250 g/ha: 10%
[8]; rate 250 g/ha
  pest or weed control at 250 g/ha: 0%
[9]; rate 250 g/ha
  pest or weed control at 250 g/ha: 0%
[10]; rate 250 g/ha
  pest or weed control at 250 g/ha: 10%
Setaria faberi (SETFA) [11]; rate 250 g/ha
  pest or weed control at 250 g/ha: 0%
Solanum nigrum (SOLNI) [12]; rate 250 g/ha
  pest or weed control at 250 g/ha: 10%

## COC(=O)c1nc(-c2ccc(Cl)c(OC)c2F)nc2c1cc(C)n2Cc1ccco1 [Compound 11-66, 2-(4-Chloro-2-fluoro-3-methoxyphenyl)-7-(2-furanylmethyl)-4-methoxycarbonyl-6-methyl-7H-pyrrolo[2,3-d]pyrimidine]
[1]
  pest or weed control at 1000 g/ha: 0%
[2]
  pest or weed control at 1000 g/ha: 0%
[3]
  pest or weed control at 1000 g/ha: 0%
[4]
  pest or weed control at 1000 g/ha: 0%
Setaria faberi (SETFA) [5]
  pest or weed control at 1000 g/ha: 0%
Solanum nigrum (SOLNI) [6]
  pest or weed control at 1000 g/ha: 0%
[7]
  pest or weed control at 1000 g/ha: 10%
[8]
  pest or weed control at 1000 g/ha: 20%
[9]
  pest or weed control at 1000 g/ha: 20%
[10]
  pest or weed control at 1000 g/ha: 30%
Setaria faberi (SETFA) [11]
  pest or weed control at 1000 g/ha: 10%
Solanum nigrum (SOLNI) [12]
  pest or weed control at 1000 g/ha: 50%
